The results in this text go back to ChEMBL document CHEMBL4406815, “Natural product derived promising anti-MRSA drug leads: A review” (Bioorg Med Chem, 2019).

≈ marks a conversion by molar mass, not a printed value.

Series [1] deals with Staphylococcus aureus. In words: Antibacterial activity against methicillin-sensitive Staphylococcus aureus ATCC 25923 after 24 to 72 hrs by two-fold serial dilution method. Format: functional.
For series [2], the system named is Staphylococcus aureus. Nature of the series: Antibacterial activity against methicillin resistant Staphylococcus aureus BAA 1762 after 24 to 72 hrs by two-fold serial dilution method. It counts as functional.
The subject of series [3] is Staphylococcus aureus. Nature of the series: Antibacterial activity against methicillin-resistant Staphylococcus aureus. Format: functional.
For series [4], the system named is Staphylococcus aureus. Nature of the series: Bactericidal activity against methicillin-resistant Staphylococcus aureus. It counts as functional.
Series [5] deals with Erythrocyte. Nature of the series: Hemolytic activity against human erythrocytes. Format: ADME, cell-based.
Series [6] relates to Staphylococcus aureus. Nature of the series: Antimicrobial activity against Staphylococcus aureus ATCC 6538 after 24 hrs by colony counting method. It counts as functional. Particulars: ATCC 6538, 24 h.
Series [7] can be described thus: Cytotoxicity against African green monkey Vero cells assessed as reduction in cell viability by MTT assay. It counts as cell-based. Particulars: chlorocebus sabaeus, read-out: MIC. A general note: Tetrazolium assays rely on reduction of a dye to a coloured formazan, in cell work by metabolically active cells.
Series [8] has as its system Staphylococcus aureus. Nature of the series: Antibacterial activity against methicillin-resistant Staphylococcus aureus ATCC 33591. It counts as functional.
Series [9] concerns Staphylococcus aureus. Nature of the series: Antibacterial activity against methicillin-resistant Staphylococcus aureus ATCC 43300. It counts as functional.
Series [10] has as its system Staphylococcus aureus. Nature of the series: Antibacterial activity against methicillin-resistant Staphylococcus aureus TISTR 1466 by two-fold serial dilution method. It counts as functional.
The subject of series [11] is Staphylococcus aureus. Nature of the series: Antibacterial activity against methicillin-resistant Staphylococcus aureus CGMCC 1.12409. It counts as functional.
Series [12] in a line: Inhibition of methicillin-resistant Staphylococcus aureus pyruvate kinase.
The test system of series [13] is Staphylococcus aureus. In words: Antibacterial activity against methicillin-resistant Staphylococcus aureus ATCC 43300 after 18 hrs. Format: functional, organism-based. The settings on record: ATCC 43300, 18 h.
The subject of series [14] is Staphylococcus aureus. Nature of the series: Antibacterial activity against methicillin-resistant Staphylococcus aureus SK1 by two-fold serial dilution method. It counts as functional.
For series [15], the system named is HT-29. Nature of the series: Cytotoxicity against human HT-29 cells assessed as reduction in cell viability after 24 hrs by MTS assay. It counts as functional, cell-based. The settings on record: HT-29, 24 h.

By MIC is commonly meant the least concentration at which growth counts as inhibited. With `COC(=O)/C=C/C(=O)c1ccc(Cl)cc1`, the MIC in series [1] and in series [2] was 0.35 to 0.75 µg/mL (≈ 1.56 to 3.34 µM) each time.

What is called MBC is the lowest tested concentration that kills the bacteria rather than only halting them. Turning to `COc1ccc2c(c1OC)C(O)N(C)c1c-2ccc2cc3c(cc12)OCO3` (stereo not given), the MIC in [3] lay within 0.49 to 15.6 µg/mL. Besides, in series [4], the MBC was in the range of 1.95 to 62.5 µg/mL (≈ 5.34 to 171 µM).

Consider `COc1c(OCCCCN)cc2oc3cc(OCCCCN)c(CC=C(C)C)c(O)c3c(=O)c2c1CC=C(C)C`, for which the MIC in series [3] lay within 1560 to 3120 µM. In series [5], this molecule returned an MHC of 80.2 µg/mL.

For `CCCC(=O)C1=C(O)C(C)(C)C(O)=C(Cc2c(O)c(C)c(OC)c(C(=O)CCC)c2O)C1=O`, in series [6], the MIC lay in the range of 15 to 62 µg/mL (≈ 32.6 to 135 µM). Moreover, in series [7], the MCC turned out to be 48.1 µg/mL.

For the molecule `CCCCCCC(C)/C=C(\C)C(=O)O[C@@]1(C)C(=O)C2=COC(C3=C(C)CC(O)CC3=O)=CC2=C(Cl)C1=O` (stereo not given in full), the MIC in [8] and in series [9] was 3.13 to 6.25 µg/mL (≈ 5.89 to 11.8 µM) in each case.

In the case of `CCCCCCC(C)/C=C(\C)C(=O)O[C@@]1(C)C(=O)C=C2C=C(c3c(C)cccc3O)OC=C2C1=O` (stereo not given in full), the MIC in series [8] and in series [9] was 3.13 to 6.25 µg/mL (≈ 6.54 to 13.1 µM) in each case.

For `CCCCCCC(C)/C=C(\C)C(=O)O[C@@]1(C)C(=O)C2=COC(c3c(C)cccc3O)=CC2=C(Cl)C1=O` (stereo not given in full), the MIC in series [8] and in [9] was 3.13 to 6.25 µg/mL (≈ 6.1 to 12.2 µM) each time.

`CCCCOc1c(OC)cc(/C=C2\SC(=O)NC2=O)c2c1CN1CCc3cc4c(cc3C1C2)OCO4` (stereo not given) gave an MIC in [3] of 8 µM.

`C=C(C)/C=C/c1c(C(=O)OC)cc(O)c2[nH]c3ccccc3c12`: the MIC in series [10] came to 4 µg/mL (≈ 13 µM).

With `CC1=C[C@H]2c3c(O)c(O)c4oc5cc(O)cc(O)c5c(=O)c4c3[C@H](c3cc(O)c(O)c4oc5cc(O)cc(O)c5c(=O)c34)[C@H]2C(C)(C)C1`, the MIC in [11] and in [9] was 3.9 µg/mL (≈ 5.98 µM) throughout.

In turn, `COc1cc(OC)c(C2COc3c(cc(/C=C/C(=O)c4ccco4)c4c3C=CC(C)(C)O4)C2)cc1/C=C/C(=O)c1ccco1` (stereo not given) returned an MIC in [3] of 12.5 µg/mL.

By IC50 is commonly meant the point on the concentration scale where inhibition reaches its midpoint. In series [3], `O=C1NC[C@@H](c2c[nH]c3cc(Br)ccc23)N[C@H]1c1c[nH]c2cc(Br)ccc12` (relative stereo) [CIS-3,4-DIHYDROHAMACANTHIN B] had a minimal inhibitory concentration (MIC) of 12.5 µg/mL. Further, the IC50 in series [12] was in the range of 0.016 to 0.06 µM.

As for `COc1c(-c2ccc(O)c(O)c2)oc2cc(O)cc(O)c2c1=O` [3-O-METHYLQUERCETIN], in series [13], the IC50 was determined as 6.4 µM.

Turning to `C=C(C)C1Cc2c(cc(OC)c3[nH]c4ccccc4c23)C(=O)O1` (stereo not given) [CLAUSAMINE B], the MIC was found to be 8 µg/mL (≈ 26 µM) in [10] and 0.25 µg/mL (≈ 0.813 µM) in series [14].

Take `COc1ccc2cc1Oc1ccc(cc1)C[C@H]1c3cc(c(OC)cc3CCN1C)Oc1c(OC)c(OC)cc3c1[C@H](C2)N(C)CC3` [FANCHININ]: the figures for the MIC in series [3] and in series [4] were 6 to 128 µg/mL and 256 to 1020 µg/mL (≈ 411 to 1640 µM), respectively.

As to `COc1ccc2cc1Oc1ccc(cc1)C[C@H]1c3cc(c(OC)cc3CCN1C)Oc1c(O)c(OC)cc3c1[C@H](C2)N(C)CC3` [FANGCHINOLINE], the MIC in series [3] lay in the range of 6 to 128 µg/mL; in [4] it was 256 to 1020 µg/mL (≈ 421 to 1680 µM).

Regarding `O=c1cc(-c2ccc(O)c(O)c2)oc2cc(O)cc(O)c12` [LUTEOLIN], the IC50 in series [15] was found to be 45 µM.

Molecule `CN[C@H](CC(C)C)C(=O)N[C@H]1C(=O)N[C@@H](CC(N)=O)C(=O)N[C@H]2C(=O)N[C@H]3C(=O)N[C@H](C(=O)N[C@H](C(=O)O)c4cc(O)cc(O)c4-c4cc3ccc4O)[C@H](O)c3ccc(c(Cl)c3)Oc3cc2cc(c3O[C@@H]2O[C@H](CO)[C@@H](O)[C@H](O)[C@H]2O[C@H]2C[C@](C)(N)[C@H](O)[C@H](C)O2)Oc2ccc(cc2Cl)[C@H]1O` [VANCOMYCIN] had an MIC in [3] of 1.25 µg/mL.
